Assay results taken from patent US9896435B2, “N-pyrrolidinyl,N′-pyrazolyl-urea, thiourea, guanidine and cyanoguanidine compounds as TrkA kinase inhibitors” (Array BioPharma Inc., priority 2012, dated 2018).

Biological target: His-tagged recombinant human TrkA (Homo sapiens (Human), UniProt P04629)
Assay: TrkA LanthaScreen Eu Kinase Binding Assay
Details: averaged IC50; LanthaScreen binding assay of Example A; read-out: TrkA Enzyme IC50
Method: TrkA binding activity was determined in a TrkA LanthaScreen™ Eu Kinase Binding Assay. 5 nM His-tagged recombinant human TrkA (6HIS tagged cytoplasmic domain from Invitrogen, Catalog No. PV3144) was incubated with 4 nM Alexa-Fluor® Tracer 236 (Invitrogen Cat. No. PV5592), 2 nM biotinylated anti-His (Invitrogen Cat. No. PV6090), and 2 nM europium-labeled Streptavidin (Invitrogen Cat. No. PV5899), in buffer (25 mM MOPS, pH 7.5, 5 mM MgCl2, 0.005% Triton X-100). Three fold serial dilutions of compounds of the invention in DMSO were added to a final percentage of 2% DMSO. After 60-minute incubation at 22° C., the reaction was measured using the EnVision mutlimode plate reader (PerkinElmer) via TR-FRET dual wavelength detection at […]. The percent of control was calculated using a ratiometric emission factor. The IC50 values were determined by fitting a four parameter model to the percent of control data.
Table A provides averaged IC50 values for compounds of the invention when tested in the assay of Example A, where A represents an averaged IC50 value<100 nM.

Chain of His-tagged recombinant human TrkA (P04629 440-796): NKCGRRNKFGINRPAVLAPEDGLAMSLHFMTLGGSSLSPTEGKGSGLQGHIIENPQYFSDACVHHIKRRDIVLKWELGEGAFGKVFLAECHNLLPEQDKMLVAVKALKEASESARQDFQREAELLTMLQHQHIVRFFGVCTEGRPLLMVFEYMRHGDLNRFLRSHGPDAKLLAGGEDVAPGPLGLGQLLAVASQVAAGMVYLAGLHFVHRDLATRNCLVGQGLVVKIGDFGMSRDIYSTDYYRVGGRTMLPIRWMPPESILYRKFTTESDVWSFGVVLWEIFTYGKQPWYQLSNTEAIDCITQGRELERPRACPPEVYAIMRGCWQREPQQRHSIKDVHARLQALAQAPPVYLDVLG

| IC50 | SMILES |
| --- | --- |
| < 100 nM | COCCN1C[C@@H](NC(=O)Nc2c(C)c(-c3cnc(=O)n(C)c3)nn2-c2ccccc2)[C@H](c2ccc(F)c(F)c2)C1 [Example 28, 1-((3S,4R)-4-(3,4-difluorophenyl)-1-(2-methoxyethyl)pyrrolidin-3-yl)-3-(4-methyl-3-(1-methyl-2-oxo-1,2-dihydropyrimidin-5-yl)-1-phenyl-1H-pyrazol-5-yl)urea] |
| < 100 nM | COCCN1C[C@@H](NC(=O)Nc2c(C)c(-c3cc(C)c(=O)n(C)c3)nn2-c2ccccc2)[C@H](c2ccc(F)c(F)c2)C1 [Example 29, 1-((3S,4R)-4-(3,4-difluorophenyl)-1-(2-methoxyethyl)pyrrolidin-3-yl)-3-(3-(1,5-dimethyl-6-oxo-1,6-dihydropyridin-3-yl)-4-methyl-1-phenyl-1H-pyrazol-5-yl)urea] |
| < 100 nM | COCCN1C[C@@H](NC(=O)Nc2c(C)c(S(C)(=O)=O)nn2-c2ccccc2)[C@H](c2ccc(F)c(F)c2)C1 [Example 30, 1-((3S,4R)-4-(3,4-difluorophenyl)-1-(2-methoxyethyl)pyrrolidin-3-yl)-3-(4-methyl-3-(methylsulfonyl)-1-phenyl-1H-pyrazol-5-yl)urea] |
| < 100 nM | COCCN1C[C@@H](NC(=O)Nc2c(C)c(C(C)=O)nn2-c2ccccc2)[C@H](c2ccc(F)c(F)c2)C1 [Example 31, 1-(3-acetyl-4-methyl-1-phenyl-1H-pyrazol-5-yl)-3-((3S,4R)-4-(3,4-difluorophenyl)-1-(2-methoxyethyl)pyrrolidin-3-yl)urea] |
